The numbers were not newly measured in patent publication US8853212B2, “Substituted aminotetrahydrothiopyrans and derivatives thereof as dipeptidyl peptidase-IV inhibitors for the treatment of diabetes” (Merck Sharp & Dohme Corp, priority 2010, dated 2014), which cites them from elsewhere.

One data set deals with hematopoiesis. Conditions: mouse, cyclophosphamide-induced neutropenia.
The next data set relates to cardiac allograft. Particulars: rats; doubled from day 7.
The next data set has as its target DPP-4 (Homo sapiens (Human), UniProt P27487).

Chain of DPP-4 (P27487 39-766, species assumed): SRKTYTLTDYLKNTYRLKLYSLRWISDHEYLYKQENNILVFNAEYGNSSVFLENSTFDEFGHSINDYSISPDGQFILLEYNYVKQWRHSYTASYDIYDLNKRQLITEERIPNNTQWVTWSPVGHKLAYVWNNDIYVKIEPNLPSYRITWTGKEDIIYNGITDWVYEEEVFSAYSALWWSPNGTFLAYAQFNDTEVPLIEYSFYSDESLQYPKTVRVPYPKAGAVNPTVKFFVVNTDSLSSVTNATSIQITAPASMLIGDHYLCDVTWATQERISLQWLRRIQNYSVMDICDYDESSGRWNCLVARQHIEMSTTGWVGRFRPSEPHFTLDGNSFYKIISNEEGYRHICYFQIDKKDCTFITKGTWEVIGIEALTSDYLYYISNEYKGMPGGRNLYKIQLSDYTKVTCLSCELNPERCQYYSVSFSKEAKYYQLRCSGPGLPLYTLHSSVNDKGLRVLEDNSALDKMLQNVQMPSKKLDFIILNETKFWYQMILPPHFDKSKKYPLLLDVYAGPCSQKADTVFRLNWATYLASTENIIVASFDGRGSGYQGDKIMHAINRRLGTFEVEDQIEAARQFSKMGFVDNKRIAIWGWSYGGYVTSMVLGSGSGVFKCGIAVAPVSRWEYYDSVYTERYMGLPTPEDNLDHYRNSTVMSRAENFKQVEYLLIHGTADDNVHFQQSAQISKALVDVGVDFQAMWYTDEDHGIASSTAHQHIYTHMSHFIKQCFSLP

In the case of `CC(C)[C@H](N)C(=O)N1CCC[C@H]1B(O)O` [Val-Bono-Pro], the hematopoiesis result with hematopoiesis is reported as “stimulated hematopoiesis”.

Take `CC(C)N1CCC(c2ccccc2)(c2ccccc2)CC1` [Prodipine, Pro-Pro-diphenyl-phosphonate]: in the data set with cardiac allograft, the cardiac allograft survival was 14 day.

For diprotin A, the “degradation of GRF in plasma to GRF[3-44]” value at DPP-4 was “prevented”.
